We go through two molecules from ChEMBL document CHEMBL4406832, “Discovery of novel series of 2-substituted benzo[d]oxazol-5-amine derivatives as multi-target directed ligands for the treatment of Alzheimer's disease” (Eur J Med Chem, 2019).

What is called IC50 is the concentration that gives 50% inhibition. A low value points to higher potency. The term Papp denotes a coefficient for how fast a substance crosses the barrier. A lower Papp goes with poor permeation. Usually Ki stands for the equilibrium dissociation constant of an inhibitor or competing ligand from its target. Lower therefore signals higher affinity.

Active and inactive are the calls of the source. No cut-off for these calls is given here.

Data set [1] in a line: Selectivity index, ratio of IC50 for equine serum BuChE to IC50 for electric eel AChE.
Data set [2] deals with Cholinesterase (Equus caballus) (UniProt P81908). As to the kind of experiment: Non-competitive inhibition of equine serum BuChE assessed as decrease in Km at 0.5 to 1.5 uM using varying levels of butyrylthiocholine iodide as substrate measured every 2 mins for 10 mins by reciprocal Lineweaver-Burk plot analysis.
Sequence of Cholinesterase (Equus caballus) (P81908 whole entry, the tested form may be a part): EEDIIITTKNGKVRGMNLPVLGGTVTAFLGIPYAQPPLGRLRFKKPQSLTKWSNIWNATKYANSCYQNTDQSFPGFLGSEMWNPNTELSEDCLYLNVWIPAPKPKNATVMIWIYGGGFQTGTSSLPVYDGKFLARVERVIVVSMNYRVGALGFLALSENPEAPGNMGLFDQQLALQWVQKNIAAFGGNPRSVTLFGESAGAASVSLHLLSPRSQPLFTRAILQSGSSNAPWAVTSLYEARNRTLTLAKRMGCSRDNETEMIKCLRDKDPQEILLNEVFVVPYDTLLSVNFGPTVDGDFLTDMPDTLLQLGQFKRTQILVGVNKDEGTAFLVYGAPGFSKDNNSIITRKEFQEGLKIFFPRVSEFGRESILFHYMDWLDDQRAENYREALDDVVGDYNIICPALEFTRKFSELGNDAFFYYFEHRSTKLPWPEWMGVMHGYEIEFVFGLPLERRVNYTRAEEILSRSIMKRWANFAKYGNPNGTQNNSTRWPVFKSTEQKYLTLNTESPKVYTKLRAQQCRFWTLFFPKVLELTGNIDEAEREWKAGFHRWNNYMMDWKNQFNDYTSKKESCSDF
Data set [3] relates to Rattus norvegicus. As to the kind of experiment: Improvement in learning and spatial memory in icv infused amyloid beta (1 to 42)-induced Wistar rat model of Alzheimer's disease assessed as increase in number of platform crossing at 10 mg/kg, po administered daily for 7 days starting from 7 days post surgery and measured after 6 days by Morris water maze test. The class given is functional, organism-based.

In data set [4] the test system is SH-SY5Y. As to the kind of experiment: Neuroprotective activity against amyloid beta (1 to 42)-induced cytotoxicity in human SH-SY5Y cells assessed as increase in cell viability at 40 to 80 uM measured after 72 hrs by MTT assay. Format: functional, cell-based.
The target in data set [5] is T1, Cholinesterase (Equus caballus, UniProt P81908). As to the kind of experiment: Inhibition of equine serum BuChE using butyrylthiocholine iodide as substrate preincubated for 30 mins followed by substrate addition and measured for 1 min by DTNB reagent-based spectrophotometric analysis.
T1 sequence (P81908 whole entry, the tested form may be a part): as above
Data set [6] can be described thus: Permeability of the compound in pH 7.4 PBS buffer incubated for 18 hrs by PAMPA-BBB assay. For orientation: The PAMPA barrier holds no transporters, so it reflects passive diffusion.
Data set [7] has as its target T2, Acetylcholinesterase (Electrophorus electricus, UniProt O42275). The data set can be described thus: Non-competitive inhibition of electric eel AChE using varying levels of acetylthiocholine iodide as substrate measured at 2 mins interval for 10 mins by Dixon plot analysis.
Data set [8] is described as follows: Acute toxicity in Wistar rat assessed as animal death measured for 72 hrs by OCED guideline method. The conditions noted are these: in vivo.
The target of data set [9] is Acetylcholinesterase (Electrophorus electricus) (UniProt O42275). As to the kind of experiment: Inhibition of electric eel AChE-induced amyloid beta (1 to 42) aggregation at 5 to 20 uM after 48 hrs by thioflavin T-based fluorometric assay.
Sequence of Acetylcholinesterase (Electrophorus electricus) (O42275 24-633 limits assumed): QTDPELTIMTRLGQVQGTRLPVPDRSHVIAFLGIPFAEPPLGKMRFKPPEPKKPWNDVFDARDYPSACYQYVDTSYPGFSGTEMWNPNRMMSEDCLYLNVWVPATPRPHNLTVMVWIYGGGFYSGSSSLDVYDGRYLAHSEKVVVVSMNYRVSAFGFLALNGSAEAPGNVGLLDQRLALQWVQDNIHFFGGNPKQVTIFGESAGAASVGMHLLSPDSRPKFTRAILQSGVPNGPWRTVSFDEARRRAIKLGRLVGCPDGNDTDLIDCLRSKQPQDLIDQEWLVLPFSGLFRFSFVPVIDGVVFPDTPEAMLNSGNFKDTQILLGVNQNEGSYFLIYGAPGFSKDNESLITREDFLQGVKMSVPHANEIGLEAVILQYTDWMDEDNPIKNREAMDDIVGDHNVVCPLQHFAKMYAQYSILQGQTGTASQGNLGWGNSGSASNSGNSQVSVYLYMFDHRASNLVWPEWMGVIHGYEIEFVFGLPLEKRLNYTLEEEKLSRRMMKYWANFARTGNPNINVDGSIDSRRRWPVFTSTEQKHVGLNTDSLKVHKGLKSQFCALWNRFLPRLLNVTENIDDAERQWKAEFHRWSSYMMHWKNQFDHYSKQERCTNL
Data set [10] in a line: Toxicity in Wistar rat assessed as change in body weight at 300 mg/kg measured for 72 hrs. The class given is organism-based. To be noted: in vivo.
The test system of data set [11] is Rattus norvegicus. As to the kind of experiment: Improvement in learning and spatial memory in icv infused amyloid beta (1 to 42)-induced Wistar rat model of Alzheimer's disease assessed as reduction in escape latency at 10 mg/kg, po administered daily for 7 days starting from 7 days post surgery and measured daily for 5 days by Morris water maze test. The class given is functional, organism-based.

For data set [12], the target named is Acetylcholinesterase (Electrophorus electricus) (UniProt O42275). The data set can be described thus: Non-competitive inhibition of electric eel AChE assessed as decrease in Vmax at 25 to 75 nM using varying levels of acetylthiocholine iodide as substrate measured every 2 mins for 10 mins by reciprocal Lineweaver-Burk plot analysis.
Data set [13] addresses T3, Amyloid-beta precursor protein (Homo sapiens, UniProt P05067). The data set can be described thus: Inhibition of human amyloid beta (1 to 42) self-induced aggregation at 5 to 20 uM after 48 hrs by Thioflavin T based fluorometric assay.
Data set [14] deals with Rattus norvegicus. As to the kind of experiment: Improvement in learning and spatial memory in icv infused amyloid beta (1 to 42)-induced Wistar rat model of Alzheimer's disease assessed as reduction in disordered neuron in hippocampal region at 10 mg/kg, po administered daily for 7 days starting from 7 days post surgery and measured after 6 days by H and E staining-based microscopic analysis. Format: functional, organism-based.

Data set [15] is filed under the species Rattus norvegicus. The data set can be described thus: Cognitive enhancing effect in scopolamine-induced Wistar rat model of amnesia assessed as increase in spontaneous alteration pretreated for 7 days followed by scopolamine challenge and measured after 30 mins by Y-maze test. Format: functional, organism-based.
The species entered for data set [16] is Rattus norvegicus. The data set can be described thus: Ex vivo inhibition of AChE in brain of scopolamine-induced Wistar rat model of amnesia pretreated for 7 days followed by scopolamine challenge and measured after 30 mins using acetylthiocholine iodide as substrate by Ellman's method. The class given is functional, organism-based. Background: In Ellman's method for cholinesterases, released thiocholine reacts with DTNB.

For data set [17], the target named is Acetylcholinesterase (Electrophorus electricus) (UniProt O42275). As to the kind of experiment: Non-competitive inhibition of electric eel AChE assessed as decrease in Km at 25 to 75 nM using varying levels of acetylthiocholine iodide as substrate measured every 2 mins for 10 mins by reciprocal Lineweaver-Burk plot analysis.
Data set [18] has as its target T1, Cholinesterase. As to the kind of experiment: Non-competitive inhibition of equine serum BuChE using varying levels of butyrylthiocholine iodide as substrate measured at 2 mins interval for 10 mins by Dixon plot analysis.
Data set [19] deals with Cholinesterase (Equus caballus) (UniProt P81908). The data set can be described thus: Non-competitive inhibition of equine serum BuChE assessed as decrease in Vmax at 0.5 to 1.5 uM using varying levels of butyrylthiocholine iodide as substrate measured every 2 mins for 10 mins by reciprocal Lineweaver-Burk plot analysis.
The test system of data set [20] is SH-SY5Y. As to the kind of experiment: Neuroprotective activity against amyloid beta (1 to 42)-induced cytotoxicity in human SH-SY5Y cells assessed as increase in cell viability at 10 to 20 uM measured after 72 hrs by MTT assay. Format: functional, cell-based. For orientation: Tetrazolium dyes change colour on reduction, which living cells bring about.
Data set [21] concerns Rattus norvegicus. As to the kind of experiment: Improvement in learning and spatial memory in icv infused amyloid beta (1 to 42)-induced Wistar rat model of Alzheimer's disease assessed as increase in time spent in platform zone at 10 mg/kg, po administered daily for 7 days starting from 7 days post surgery and measured after 6 days by Morris water maze test. Format: functional, organism-based.

Data set [22] deals with Rattus norvegicus. The data set can be described thus: Improvement in learning and spatial memory in icv infused amyloid beta (1 to 42)-induced Wistar rat model of Alzheimer's disease assessed as reduction in degeneration of neuron in hippocampal region at 10 mg/kg, po administered daily for 7 days starting from 7 days post surgery and measured after 6 days by H and E staining-based microscopic analysis. The class given is functional, organism-based.

Data set [23] has as its target T2, Acetylcholinesterase. The data set can be described thus: Inhibition of electric eel AChE using acetylthiocholine iodide as substrate preincubated with enzyme for 30 mins followed by substrate addition and measured for 1 min by DTNB reagent-based spectrophotometric analysis.
The target of data set [24] is T3, Amyloid-beta precursor protein. As to the kind of experiment: Displacement of [125I]IMPY from human amyloid beta(1-42) aggregates incubated for 3 hrs by gamma counting analysis.

T3 sequence (P05067 whole entry, the tested form may be a part): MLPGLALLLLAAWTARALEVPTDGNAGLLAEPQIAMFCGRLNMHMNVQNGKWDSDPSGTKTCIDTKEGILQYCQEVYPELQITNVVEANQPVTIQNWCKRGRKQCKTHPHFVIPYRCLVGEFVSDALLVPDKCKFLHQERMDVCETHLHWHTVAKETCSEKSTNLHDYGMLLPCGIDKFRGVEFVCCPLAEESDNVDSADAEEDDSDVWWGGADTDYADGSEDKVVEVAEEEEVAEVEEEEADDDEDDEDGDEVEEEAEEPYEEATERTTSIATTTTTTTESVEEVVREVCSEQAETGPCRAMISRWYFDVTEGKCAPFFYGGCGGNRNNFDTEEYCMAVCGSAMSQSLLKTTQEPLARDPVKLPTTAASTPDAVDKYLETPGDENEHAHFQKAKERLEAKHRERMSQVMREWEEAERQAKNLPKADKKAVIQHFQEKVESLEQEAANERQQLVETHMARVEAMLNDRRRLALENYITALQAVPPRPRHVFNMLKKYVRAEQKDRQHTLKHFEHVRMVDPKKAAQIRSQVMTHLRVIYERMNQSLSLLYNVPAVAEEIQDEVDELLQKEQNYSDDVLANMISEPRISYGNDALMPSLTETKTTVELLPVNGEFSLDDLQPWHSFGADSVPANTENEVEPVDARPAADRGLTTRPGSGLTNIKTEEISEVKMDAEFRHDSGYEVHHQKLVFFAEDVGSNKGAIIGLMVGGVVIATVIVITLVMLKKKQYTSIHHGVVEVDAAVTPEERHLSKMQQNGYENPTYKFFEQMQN
T2 sequence (O42275 whole entry): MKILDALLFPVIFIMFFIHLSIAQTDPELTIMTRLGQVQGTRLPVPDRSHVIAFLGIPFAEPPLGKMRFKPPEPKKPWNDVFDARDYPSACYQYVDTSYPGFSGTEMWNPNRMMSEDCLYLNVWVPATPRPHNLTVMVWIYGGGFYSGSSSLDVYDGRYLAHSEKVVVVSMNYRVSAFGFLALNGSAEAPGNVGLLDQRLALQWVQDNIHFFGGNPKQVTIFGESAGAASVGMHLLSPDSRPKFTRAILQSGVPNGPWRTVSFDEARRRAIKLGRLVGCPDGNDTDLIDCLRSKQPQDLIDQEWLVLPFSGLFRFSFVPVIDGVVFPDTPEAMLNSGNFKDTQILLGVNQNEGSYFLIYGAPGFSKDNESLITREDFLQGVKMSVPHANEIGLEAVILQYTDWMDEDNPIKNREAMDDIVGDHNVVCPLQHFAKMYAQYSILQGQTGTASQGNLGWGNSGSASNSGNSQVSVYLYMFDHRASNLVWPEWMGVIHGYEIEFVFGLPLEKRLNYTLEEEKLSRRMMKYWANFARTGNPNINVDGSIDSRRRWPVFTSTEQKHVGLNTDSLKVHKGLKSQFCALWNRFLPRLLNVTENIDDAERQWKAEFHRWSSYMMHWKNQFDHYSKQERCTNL

Regarding `Nc1ccc2oc(N3CCN(C(=O)c4ccc(Br)cc4)CC3)nc2c1`, the Ratio IC50 in data set [1] was 20.8. For the same molecule, the inhibition result in data set [2], in data set [9], in [12], in [13], in data set [17] and in [19] was “Active” in each case. Besides, the result in the data set on Rattus norvegicus [3], with SH-SY5Y [4], in the data set on Rattus norvegicus [11], with Rattus norvegicus [14], with Rattus norvegicus [21] and in the data set on Rattus norvegicus [22] was Active. Also, the IC50 against Cholinesterase [5] is 1080 nM; against Acetylcholinesterase [23], 52 nM. In data set [6], the Papp at 18 h turned out to be 10.8 ×10⁻⁶ cm/s. In addition, the results for the Ki on Acetylcholinesterase [7] and on Cholinesterase [18] were 30 nM and 860 nM, respectively. For the same molecule, the results for the Activity entry (in data set [8]; in [10]; in the data set listed under Rattus norvegicus [15]) were “Toxic”, “Toxic” and “Dose-dependent effect”, respectively. In addition, the inhibition result in the data set filed under Rattus norvegicus [16] is “Dose-dependent effect”. In addition, the result in the data set on SH-SY5Y [20] was inactive.

For the molecule `CN(C)c1ccc(-c2nc3cc([125I])ccc3o2)cn1`, in data set [24], the affinity corresponds to a Ki of 6.9 nM.
